# Results published in US11976083B2, “Inhibitors of peptidylarginine deiminases” (Gilead Sciences, Inc., priority 2020, dated 2024).
# Biological target: T1, human PAD4 (Homo sapiens, UniProt Q9UM07)
# T1 construct: human PAD4 (NM_012387), A2-P663, was PCR amplified; His-SUMO (N, cleaved yes); made in house; host or cells: E. coli BL21(DE3)
# Assay: In vitro PAD4 BAEE biochemical assay
# Conditions: BAEE substrate 3 mM, 5 nM PAD4, 2 mM calcium chloride; geometric mean of multiple experiments
# Method in brief: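 Recombinant PAD4 (5 nM final) with 2 mM CaCl2 was preincubated with compound for 30 min at 25 °C in MOPS pH 7.6 buffer with DTT, then reacted with 3 mM BAEE for 2 h at 25 °C. Released ammonia was detected fluorimetrically with o-phthalaldehyde/DTT; IC50 from four-parameter fit, geometric mean of experiments.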
# T1 sequence (Q9UM07 2-663): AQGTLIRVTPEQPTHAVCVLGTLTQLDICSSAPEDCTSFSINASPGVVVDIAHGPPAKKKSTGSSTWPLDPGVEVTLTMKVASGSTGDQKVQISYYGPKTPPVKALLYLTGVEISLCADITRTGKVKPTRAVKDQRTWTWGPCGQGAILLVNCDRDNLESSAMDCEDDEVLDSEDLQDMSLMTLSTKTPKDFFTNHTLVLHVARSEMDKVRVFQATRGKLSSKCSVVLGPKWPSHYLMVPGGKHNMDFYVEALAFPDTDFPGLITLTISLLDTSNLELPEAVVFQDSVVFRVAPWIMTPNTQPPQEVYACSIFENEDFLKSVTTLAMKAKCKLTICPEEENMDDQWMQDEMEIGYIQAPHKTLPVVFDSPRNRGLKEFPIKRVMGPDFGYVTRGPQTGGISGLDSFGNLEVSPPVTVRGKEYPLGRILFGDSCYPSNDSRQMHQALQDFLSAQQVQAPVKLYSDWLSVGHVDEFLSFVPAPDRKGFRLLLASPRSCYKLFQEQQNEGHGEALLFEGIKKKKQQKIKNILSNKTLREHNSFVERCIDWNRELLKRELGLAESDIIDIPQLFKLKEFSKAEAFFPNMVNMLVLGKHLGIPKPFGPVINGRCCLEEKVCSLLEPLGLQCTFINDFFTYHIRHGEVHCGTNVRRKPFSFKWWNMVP
row,SMILES,IC50 [nM]
1,"CO[C@@H]1CCN(C(=O)c2cc(F)c3c(c2)nc(-c2cc4ccc5nc4n2CCCCCC[C@@](F)(c2cccc(Cl)n2)C(=O)N[C@@H]5C)n3C2CC2)C[C@@H]1N [Example 875, (8~{R},11~{R})-17-[5-[(3~{S), 4~{R})-3-amino-4-methoxy-piperidine-1-carbonyl]-1-cyclopropyl-7-fluoro-benzimidazol-2-yl]-8-(6-chloro-2-pyridyl)-8-fluoro-11-methyl-1,10,19-triazatricyclo[10.5.2.0^{15,18}] nonadeca-12(19), 13,15(18),16-tetraen-9-one]",148
2,"CO[C@@H]1CCN(C(=O)c2cc(F)c3c(c2)nc(-c2cc4ccc5nc4n2CCCCCC[C@](F)(c2cccc(Cl)n2)C(=O)N[C@@H]5C)n3C2CC2)C[C@@H]1N [Example 876, (8~{S},11~{R})-17-[5-[(3~{S}, 4~{R})-3-amino-4-methoxy-piperidine-1-carbonyl]-1-cyclopropyl-7-fluoro-benzimidazol-2-yl]-8-(6-chloro-2-pyridyl)-8-fluoro-11-methyl-1,10,19-triazatricyclo [10.5.2.0^{15,18}]nonadeca-12(19),13,15(18), 16-tetraen-9-one]",122
3,"C[C@H]1NC(=O)c2nccnc2CCCCCn2c(-c3nc4cc(C(=O)N5C[C@H](N)[C@@H]6CC[C@H]5C6)c(F)c(F)c4n3C3CC3)cc3ccc1nc32 [Example 877, (2~{R})-17-[5-[(1~{S},4~{R}, 5~{})-4-amino-2-azabicyclo [3.2.1]octane-2-carbonyl]-1-cyclopropyl-6,7-difluoro-benzimidazol-2-yl]-2-methyl-3,6,9,16,22-pentazatetracyclo [14.5.2.0^{5,10}.0^{19,23}] tricosa-1(22),5(10),6,8,17,19(23), 20-heptaen-4-one]",40
4,"C[C@H]1NC(=O)c2ccc(Cl)nc2CC[C@H]2C[C@@H]2Cn2c(-c3nc4cc(C(=O)N5C[C@H](N)[C@@H]6CC[C@H]5C6)cc(F)c4n3C3CC3)cc3ccc1nc32 [Example 878, (3~{S},5~{S},16~{R})-22-[5-[(1~{S},4~{R},5~{R})-4-amino-2-azabicyclo[3.2.1]octane-2-carbonyl]-1-cyclopropyl-7-fluoro-benzimidazol-2-yl]-10-chloro-16-methyl-1,9,15,24-tetrazapentacyclo [15.5.2.0^{3,5}.0^ {8,13}.0^{20,23}]tetracosa-8(13),9,11,17(24),18,20(23), 21-heptaen-14-one]",26
5,"C[C@H]1NC(=O)c2ccc(Cl)nc2CC[C@@H]2C[C@H]2Cn2c(-c3nc4cc(C(=O)N5C[C@H](N)[C@@H]6CC[C@H]5C6)cc(F)c4n3C3CC3)cc3ccc1nc32 [Example 879, (3~{R},5~{R},16~{R})-22-[5-[(1~{S},4~{R}, 5~{R})-4-amino-2-azabicyclo[3.2.1]octane-2-carbonyl]-1-cyclopropyl-7-fluoro-benzimidazol-2-yl]-10-chloro-16-methyl-1,9,15,24-tetrazapentacyclo[15.5.2.0^ {3,5}.0^{8,13}.0^{20,23}] tetracosa-8(13),9,11,17(24), 18,20(23),21-heptaen-14-one]",34
6,"C[C@H]1NC(=O)[C@H]2C[C@@H]2CC(F)(F)CCCn2c(-c3nc4cc(C(=O)N5C[C@H](N)[C@@H]6CC[C@H]5C6)cc(F)c4n3C3CC3)cc3ccc1nc32 [Example 880, (2~{R},5~{S},7~{R})-14-[5-[(1~{S},4~{R},5~{R})-4-amino-2-azabicyclo[3.2.1]octane-2-carbonyl]-1-cyclopropyl-7-fluoro-benzimidazol-2-yl]-9,9-difluoro-2-methyl-3,13,19-triazatetracyclo [11.5.2.0^{5,7}.0^{16,20}] icosa-1(19),14,16(20), 17-tetraen-4-one]",39
7,"C[C@H]1NC(=O)[C@@H]2C[C@H]2CC(F)(F)CCCn2c(-c3nc4cc(C(=O)N5C[C@H](N)[C@@H]6CC[C@H]5C6)cc(F)c4n3C3CC3)cc3ccc1nc32 [Example 881, (2~{R},5~{R},7~{S})-14-[5-[(1~{S},4~{R},5~{R})-4-amino-2-azabicyclo [3.2.1]octane-2-carbonyl]-1-cyclopropyl-7-fluoro-benzimidazol-2-yl]-9,9-difluoro-2-methyl-3,13,19-triazatetracyclo [11.5.2.0^{5,7}.0^{16,20}] icosa-1(19),14,16(20), 17-tetraen-4-one]",24
8,"C[C@H]1NC(=O)[C@@H]2C[C@H]2CCCCCn2c(-c3nc4cc(C(=O)N5C[C@H](N)[C@@H]6CC[C@H]5C6)cc(F)c4n3C3CC3)cc3ccc1nc32 [Example 882, (2~{R},5~{R},7~{R})-14-[5-[(1~{S),4~{R},5~{R})-4-amino-2-azabicyclo [3.2.1]octane-2-carbonyl]-1-cyclopropyl-7-fluoro-benzimidazol-2-yl]-2-methyl-3,13,19-triazatetracyclo[11.5.2.0^ {5,7}.0^{16,20}]icosa-1(19),14,16(20),17-tetraen-4-one]",22
9,"COc1cc(C(=O)N2C[C@H](N)[C@@H]3CC[C@H]2C3)cc2nc(-c3cc4ccc5nc4n3CCCCCC[C@](F)(c3ccccn3)C(=O)N[C@@H]5C)n(C)c12 [Example 883, (8~{S},11~{R})-17-[5-[(1~{S},4~{R},5~{R})-4-amino-2-azabicyclo[3.2.1]octane-2-carbonyl]-7-methoxy-1-methyl-benzimidazol-2-yl]-8-fluoro-11-methyl-8-(2-pyridyl)-1,10,19-triazatricyclo[10.5.2.0^ {15,18}]nonadeca-12(19), 13,15(18),16-tetraen-9-one]",18
10,"COc1cc(C(=O)N2C[C@H](N)[C@@H]3CC[C@H]2C3)cc2nc(-c3cc4ccc5nc4n3CCCCCC[C@@](F)(c3ccccn3)C(=O)N[C@@H]5C)n(C)c12 [Example 884, (8~{R},11~{R})-17-[5-[(1~{S),4~{R},5~{R})-4-amino-2-azabicyclo[3.2.1]octane-2-carbonyl]-7-methoxy-1-methyl-benzimidazol-2-yl]-8-fluoro-11-methyl-8-(2-pyridyl)-1,10,19-triazatricyclo[10.5.2.0^ {15,18}]nonadeca-12(19), 13,15(18),16-tetraen-9-one]",24
11,"C[C@H]1NC(=O)[C@@](F)(c2ccccn2)CCCCCCn2c(-c3nc4cc(C(=O)N5C[C@H](N)[C@@H]6CC[C@H]5C6)cc(F)c4n3C3CC3)cc3ccc1nc32 [Example 885, (8~{S},11~{R})-17-[5-[(1~{S},4~{R},5~{R})-4-amino-2-azabicyclo[3.2.1]octane-2-carbonyl]-1-cyclopropyl-7-fluoro-benzimidazol-2-yl]-8-fluoro-11-methyl-8-(2-pyridyl)-1,10,19-triazatricyclo[10.5.2.0^ {15,18}]nonadeca-12(19), 13,15(18),16-tetraen-9-one]",11
12,"C[C@H]1NC(=O)[C@](F)(c2ccccn2)CCCCCCn2c(-c3nc4cc(C(=O)N5C[C@H](N)[C@@H]6CC[C@H]5C6)cc(F)c4n3C3CC3)cc3ccc1nc32 [Example 886, (8~{R},11~{R})-17-[5-[(1~{S),4~{R},5~{R))-4-amino-2-azabicyclo[3.2.1]octane-2-carbonyl]-1-cyclopropyl-7-fluoro-benzimidazol-2-yl]-8-fluoro-11-methyl-8-(2-pyridyl)-1,10,19-triazatricyclo [10.5.2.0^{15,18}]nonadeca-12(19),13,15(18), 16-tetraen-9-one]",29
13,"COc1cc(C(=O)N2C[C@H](N)[C@@H]3CC[C@H]2C3)cc2nc(-c3cc4ccc5nc4n3CCCCCC[C@@](F)(c3cccc(Cl)n3)C(=O)N[C@@H]5C)n(C)c12 [Example 887, (8~{R},11~{R})-17-[5-[(1~{S),4~{R},5~{R})-4-amino-2-azabicyclo[3.2.1]octane-2-carbonyl]-7-methoxy-1-methyl-benzimidazol-2-yl]-8-(6-chloro-2-pyridyl)-8-fluoro-11-methyl-1,10,19-triazatricyclo[10.5.2.0^ {15,18}]nonadeca-12(19),13,15(18), 16-tetraen-9-one]",52
14,"COc1cc(C(=O)N2C[C@H](N)[C@@H]3CC[C@H]2C3)cc2nc(-c3cc4ccc5nc4n3CCCCCC[C@](F)(c3cccc(Cl)n3)C(=O)N[C@@H]5C)n(C)c12 [Example 888, (8~{S},11~{R})-17-[5-[(1~{S},4~{R},5~{R})-4-amino-2-azabicyclo[3.2.1]octane-2-carbonyl]-7-methoxy-1-methyl-benzimidazol-2-yl]-8-(6-chloro-2-pyridyl)-8-fluoro-11-methyl-1,10,19-triazatricyclo[10.5.2.0^ {15,18}]nonadeca-12(19), 13,15(18),16-tetraen-9-one]",37
15,"COc1cc(C(=O)N2C[C@H](N)[C@@H]3CC[C@H]2C3)cc2nc(-c3cc4ccc5nc4n3CCCCCC[C@](c3ccccn3)(C(F)F)C(=O)N[C@@H]5C)n(C)c12 [Example 889, (8~{R},11~{R})-17-[5-[(1~{S},4~{R},5~{R})-4-amino-2-azabicyclo[3.2.1]octane-2-carbonyl]-7-methoxy-1-methyl-benzimidazol-2-yl]-8-(difluoromethyl)-11-methyl-8-(2-pyridyl)-1,10,19-triazatricyclo [10.5.2.0^{15,18}]nonadeca-12(19),13,15(18),16-tetraen-9-one]",54
16,"COc1cc(C(=O)N2C[C@H](N)[C@@H]3CC[C@H]2C3)cc2nc(-c3cc4ccc5nc4n3CCCCCC[C@@](c3ccccn3)(C(F)F)C(=O)N[C@@H]5C)n(C)c12 [Example 890, (8~{S},11~{R})-17-[5-[(1~{S},4~{R},5~{R})-4-amino-2-azabicyclo[3.2.1]octane-2-carbonyl]-7-methoxy-1-methyl-benzimidazol-2-yl]-8-(difluoromethyl)-11-methyl-8-(2-pyridyl)-1,10,19-triazatricyclo [10.5.2.0^{15,18}]nonadeca-12(19),13,15(18), 16-tetraen-9-one]",10
